{"source": "paper PMC8138761", "about": "(The Journal of Biological Chemistry, 2021)", "format_in_all_cases": "biochemical", "settings_in_all_cases": "read-out: % inhibition at 10 μM", "key": {"[1]": {"molecular_target": "T1, checkpoint kinase-1 (CHK1) (Homo sapiens, UniProt O14757)", "T1 sequence (O14757 1-476)": "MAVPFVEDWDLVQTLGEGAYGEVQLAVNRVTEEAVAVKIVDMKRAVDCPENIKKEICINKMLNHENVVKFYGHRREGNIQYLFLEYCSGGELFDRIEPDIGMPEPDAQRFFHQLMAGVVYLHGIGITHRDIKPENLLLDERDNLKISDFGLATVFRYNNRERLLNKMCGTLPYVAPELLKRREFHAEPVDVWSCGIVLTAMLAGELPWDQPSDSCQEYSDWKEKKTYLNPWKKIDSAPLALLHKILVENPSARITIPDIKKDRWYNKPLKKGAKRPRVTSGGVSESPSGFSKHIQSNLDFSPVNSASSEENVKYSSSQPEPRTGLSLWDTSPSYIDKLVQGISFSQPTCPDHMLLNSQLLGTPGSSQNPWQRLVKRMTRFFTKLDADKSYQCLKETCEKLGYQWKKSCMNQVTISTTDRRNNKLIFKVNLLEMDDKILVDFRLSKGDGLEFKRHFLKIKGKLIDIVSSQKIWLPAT", "assay": "in vitro FRET kinase profiling at […], duplicate"}, "[2]": {"molecular_target": "T2, serine/threonine protein kinase-3 (MST2) (Homo sapiens, UniProt Q13188)", "T2 sequence (Q13188 1-491)": "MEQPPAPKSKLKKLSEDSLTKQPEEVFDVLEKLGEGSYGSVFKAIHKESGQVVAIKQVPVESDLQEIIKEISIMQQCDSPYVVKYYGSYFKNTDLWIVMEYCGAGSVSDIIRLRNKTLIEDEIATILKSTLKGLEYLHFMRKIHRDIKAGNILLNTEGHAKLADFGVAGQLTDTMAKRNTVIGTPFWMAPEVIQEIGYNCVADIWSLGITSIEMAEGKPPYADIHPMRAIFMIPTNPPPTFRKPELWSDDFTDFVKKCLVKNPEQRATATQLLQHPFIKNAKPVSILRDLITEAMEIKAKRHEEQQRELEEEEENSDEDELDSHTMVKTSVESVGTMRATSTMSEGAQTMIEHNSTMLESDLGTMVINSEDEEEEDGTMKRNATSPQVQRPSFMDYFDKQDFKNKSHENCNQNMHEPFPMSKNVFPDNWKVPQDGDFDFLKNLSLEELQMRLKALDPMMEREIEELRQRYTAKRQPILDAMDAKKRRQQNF", "assay": "in vitro FRET kinase profiling at […], duplicate"}, "[3]": {"molecular_target": "T3, serine/threonine protein kinase-4 (MST1) (Homo sapiens, UniProt Q13043)", "T3 sequence (Q13043 1-487)": "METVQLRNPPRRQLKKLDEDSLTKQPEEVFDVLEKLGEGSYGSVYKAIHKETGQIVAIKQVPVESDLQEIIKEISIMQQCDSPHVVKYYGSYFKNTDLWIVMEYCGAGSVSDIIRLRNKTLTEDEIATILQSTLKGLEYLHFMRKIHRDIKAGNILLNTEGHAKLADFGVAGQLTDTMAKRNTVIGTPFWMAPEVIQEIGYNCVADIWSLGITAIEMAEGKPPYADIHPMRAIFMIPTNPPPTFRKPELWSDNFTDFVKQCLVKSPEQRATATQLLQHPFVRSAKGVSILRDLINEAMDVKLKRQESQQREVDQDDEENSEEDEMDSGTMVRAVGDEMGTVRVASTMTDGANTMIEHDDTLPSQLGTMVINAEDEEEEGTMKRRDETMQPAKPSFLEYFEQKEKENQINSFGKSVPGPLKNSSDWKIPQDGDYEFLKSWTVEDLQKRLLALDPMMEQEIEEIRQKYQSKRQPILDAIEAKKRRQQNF", "assay": "in vitro FRET kinase profiling at […], duplicate"}, "[4]": {"molecular_target": "cyclin-dependent kinase (CDK) 1 (Homo sapiens, UniProt P06493)", "sequence (P06493 whole entry)": "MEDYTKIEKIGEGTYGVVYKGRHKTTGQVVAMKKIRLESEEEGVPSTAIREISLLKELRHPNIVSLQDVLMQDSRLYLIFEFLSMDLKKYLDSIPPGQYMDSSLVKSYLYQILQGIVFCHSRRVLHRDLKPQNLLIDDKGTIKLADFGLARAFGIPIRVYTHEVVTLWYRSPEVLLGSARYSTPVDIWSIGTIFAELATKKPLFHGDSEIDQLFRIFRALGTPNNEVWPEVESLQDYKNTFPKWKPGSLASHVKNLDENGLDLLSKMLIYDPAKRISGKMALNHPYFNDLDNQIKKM", "sequence (P14635 whole entry, further chain)": "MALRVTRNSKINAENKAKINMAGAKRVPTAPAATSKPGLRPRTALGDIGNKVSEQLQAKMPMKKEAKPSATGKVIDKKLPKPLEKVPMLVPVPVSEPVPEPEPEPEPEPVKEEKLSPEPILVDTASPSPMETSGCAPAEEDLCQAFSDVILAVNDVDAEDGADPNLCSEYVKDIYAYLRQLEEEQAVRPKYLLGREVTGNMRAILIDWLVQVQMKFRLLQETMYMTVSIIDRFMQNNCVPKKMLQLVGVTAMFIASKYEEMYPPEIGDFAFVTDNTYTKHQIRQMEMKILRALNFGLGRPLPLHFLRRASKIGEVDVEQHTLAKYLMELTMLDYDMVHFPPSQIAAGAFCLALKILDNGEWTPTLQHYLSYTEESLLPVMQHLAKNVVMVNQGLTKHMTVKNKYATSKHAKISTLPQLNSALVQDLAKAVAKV", "assay": "in vitro FRET kinase profiling at […], duplicate"}, "[5]": {"molecular_target": "glycogen synthase kinase 3-beta (GSK3-β) (Homo sapiens, UniProt P49841)", "sequence (P49841 whole entry)": "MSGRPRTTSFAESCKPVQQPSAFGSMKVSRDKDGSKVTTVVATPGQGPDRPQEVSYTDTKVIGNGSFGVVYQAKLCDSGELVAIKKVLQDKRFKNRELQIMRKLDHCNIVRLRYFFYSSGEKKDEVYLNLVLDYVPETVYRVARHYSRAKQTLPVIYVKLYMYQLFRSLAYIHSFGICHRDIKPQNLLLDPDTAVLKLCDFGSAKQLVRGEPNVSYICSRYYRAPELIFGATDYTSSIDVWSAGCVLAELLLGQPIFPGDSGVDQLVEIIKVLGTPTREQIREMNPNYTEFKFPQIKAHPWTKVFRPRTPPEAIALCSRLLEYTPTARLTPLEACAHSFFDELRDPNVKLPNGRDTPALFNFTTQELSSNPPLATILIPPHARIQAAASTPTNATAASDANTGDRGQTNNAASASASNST", "assay": "in vitro FRET kinase profiling"}, "[6]": {"molecular_target": "T4, serine/threonine kinase D2 (Homo sapiens, UniProt Q9BZL6)", "T4 sequence (Q9BZL6 1-878)": "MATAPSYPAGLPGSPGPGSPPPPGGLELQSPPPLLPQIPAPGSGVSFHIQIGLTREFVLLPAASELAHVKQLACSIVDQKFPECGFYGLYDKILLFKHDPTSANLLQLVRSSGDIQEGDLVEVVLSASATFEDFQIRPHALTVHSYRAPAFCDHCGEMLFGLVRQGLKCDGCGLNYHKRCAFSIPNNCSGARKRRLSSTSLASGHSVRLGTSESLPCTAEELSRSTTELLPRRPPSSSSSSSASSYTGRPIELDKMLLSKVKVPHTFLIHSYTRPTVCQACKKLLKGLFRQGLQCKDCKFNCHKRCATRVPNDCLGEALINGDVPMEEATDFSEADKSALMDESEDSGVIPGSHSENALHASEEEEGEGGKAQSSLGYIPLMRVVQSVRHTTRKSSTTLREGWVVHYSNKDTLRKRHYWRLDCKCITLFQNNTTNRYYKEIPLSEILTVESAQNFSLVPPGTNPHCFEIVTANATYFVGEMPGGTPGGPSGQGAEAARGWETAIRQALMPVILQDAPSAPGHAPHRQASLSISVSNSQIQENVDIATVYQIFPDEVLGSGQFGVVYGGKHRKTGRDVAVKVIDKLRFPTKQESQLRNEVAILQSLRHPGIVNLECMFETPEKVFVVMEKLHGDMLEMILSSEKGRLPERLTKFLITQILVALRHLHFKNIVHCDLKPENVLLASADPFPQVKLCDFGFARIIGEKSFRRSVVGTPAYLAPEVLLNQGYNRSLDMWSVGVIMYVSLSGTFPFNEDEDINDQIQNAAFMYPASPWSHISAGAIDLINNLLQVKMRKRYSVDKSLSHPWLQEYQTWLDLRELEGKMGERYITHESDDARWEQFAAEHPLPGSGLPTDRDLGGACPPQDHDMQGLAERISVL", "assay": "in vitro FRET kinase profiling at […], duplicate"}, "[7]": {"molecular_target": "checkpoint kinase-2 (CHK2) (Homo sapiens, UniProt O96017)", "sequence (O96017 whole entry)": "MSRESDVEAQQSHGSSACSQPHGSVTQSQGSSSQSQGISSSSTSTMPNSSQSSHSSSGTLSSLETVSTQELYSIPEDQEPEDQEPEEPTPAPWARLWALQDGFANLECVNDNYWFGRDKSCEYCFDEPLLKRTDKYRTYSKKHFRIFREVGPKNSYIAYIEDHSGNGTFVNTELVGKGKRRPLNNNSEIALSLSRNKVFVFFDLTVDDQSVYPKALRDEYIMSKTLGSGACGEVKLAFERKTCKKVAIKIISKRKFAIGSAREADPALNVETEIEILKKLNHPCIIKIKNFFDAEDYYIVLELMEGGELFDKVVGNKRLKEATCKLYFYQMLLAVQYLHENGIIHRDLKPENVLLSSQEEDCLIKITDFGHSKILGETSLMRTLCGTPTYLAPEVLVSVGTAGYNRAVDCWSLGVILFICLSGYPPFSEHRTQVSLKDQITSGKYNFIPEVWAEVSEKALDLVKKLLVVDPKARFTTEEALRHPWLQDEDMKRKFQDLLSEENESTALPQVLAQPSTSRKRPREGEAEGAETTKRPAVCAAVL", "assay": "in vitro FRET kinase profiling at […], duplicate"}, "[8]": {"molecular_target": "serine/threonine protein kinase-24 (MST3) (Homo sapiens, UniProt Q9Y6E0)", "sequence (Q9Y6E0 whole entry)": "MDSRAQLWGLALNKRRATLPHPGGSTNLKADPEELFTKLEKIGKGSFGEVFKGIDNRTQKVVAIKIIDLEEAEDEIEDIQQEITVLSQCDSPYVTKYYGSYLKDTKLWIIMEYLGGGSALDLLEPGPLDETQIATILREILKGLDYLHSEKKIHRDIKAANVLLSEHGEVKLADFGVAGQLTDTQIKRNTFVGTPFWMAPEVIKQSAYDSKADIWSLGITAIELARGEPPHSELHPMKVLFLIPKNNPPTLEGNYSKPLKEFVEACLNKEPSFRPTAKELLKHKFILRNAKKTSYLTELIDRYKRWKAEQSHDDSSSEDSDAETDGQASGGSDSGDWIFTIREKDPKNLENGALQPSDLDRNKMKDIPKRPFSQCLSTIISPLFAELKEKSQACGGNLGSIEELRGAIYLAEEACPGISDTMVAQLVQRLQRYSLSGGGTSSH", "assay": "in vitro FRET kinase profiling at […], duplicate"}, "[9]": {"molecular_target": "cyclin-dependent kinase 5 (CDK5) (Homo sapiens, UniProt Q00535)", "assay": "in vitro FRET kinase profiling at […], duplicate"}, "[10]": {"molecular_target": "leucine-rich repeat kinase-2 (LRRK2) (Homo sapiens, UniProt Q5S007)", "sequence (Q5S007 whole entry)": "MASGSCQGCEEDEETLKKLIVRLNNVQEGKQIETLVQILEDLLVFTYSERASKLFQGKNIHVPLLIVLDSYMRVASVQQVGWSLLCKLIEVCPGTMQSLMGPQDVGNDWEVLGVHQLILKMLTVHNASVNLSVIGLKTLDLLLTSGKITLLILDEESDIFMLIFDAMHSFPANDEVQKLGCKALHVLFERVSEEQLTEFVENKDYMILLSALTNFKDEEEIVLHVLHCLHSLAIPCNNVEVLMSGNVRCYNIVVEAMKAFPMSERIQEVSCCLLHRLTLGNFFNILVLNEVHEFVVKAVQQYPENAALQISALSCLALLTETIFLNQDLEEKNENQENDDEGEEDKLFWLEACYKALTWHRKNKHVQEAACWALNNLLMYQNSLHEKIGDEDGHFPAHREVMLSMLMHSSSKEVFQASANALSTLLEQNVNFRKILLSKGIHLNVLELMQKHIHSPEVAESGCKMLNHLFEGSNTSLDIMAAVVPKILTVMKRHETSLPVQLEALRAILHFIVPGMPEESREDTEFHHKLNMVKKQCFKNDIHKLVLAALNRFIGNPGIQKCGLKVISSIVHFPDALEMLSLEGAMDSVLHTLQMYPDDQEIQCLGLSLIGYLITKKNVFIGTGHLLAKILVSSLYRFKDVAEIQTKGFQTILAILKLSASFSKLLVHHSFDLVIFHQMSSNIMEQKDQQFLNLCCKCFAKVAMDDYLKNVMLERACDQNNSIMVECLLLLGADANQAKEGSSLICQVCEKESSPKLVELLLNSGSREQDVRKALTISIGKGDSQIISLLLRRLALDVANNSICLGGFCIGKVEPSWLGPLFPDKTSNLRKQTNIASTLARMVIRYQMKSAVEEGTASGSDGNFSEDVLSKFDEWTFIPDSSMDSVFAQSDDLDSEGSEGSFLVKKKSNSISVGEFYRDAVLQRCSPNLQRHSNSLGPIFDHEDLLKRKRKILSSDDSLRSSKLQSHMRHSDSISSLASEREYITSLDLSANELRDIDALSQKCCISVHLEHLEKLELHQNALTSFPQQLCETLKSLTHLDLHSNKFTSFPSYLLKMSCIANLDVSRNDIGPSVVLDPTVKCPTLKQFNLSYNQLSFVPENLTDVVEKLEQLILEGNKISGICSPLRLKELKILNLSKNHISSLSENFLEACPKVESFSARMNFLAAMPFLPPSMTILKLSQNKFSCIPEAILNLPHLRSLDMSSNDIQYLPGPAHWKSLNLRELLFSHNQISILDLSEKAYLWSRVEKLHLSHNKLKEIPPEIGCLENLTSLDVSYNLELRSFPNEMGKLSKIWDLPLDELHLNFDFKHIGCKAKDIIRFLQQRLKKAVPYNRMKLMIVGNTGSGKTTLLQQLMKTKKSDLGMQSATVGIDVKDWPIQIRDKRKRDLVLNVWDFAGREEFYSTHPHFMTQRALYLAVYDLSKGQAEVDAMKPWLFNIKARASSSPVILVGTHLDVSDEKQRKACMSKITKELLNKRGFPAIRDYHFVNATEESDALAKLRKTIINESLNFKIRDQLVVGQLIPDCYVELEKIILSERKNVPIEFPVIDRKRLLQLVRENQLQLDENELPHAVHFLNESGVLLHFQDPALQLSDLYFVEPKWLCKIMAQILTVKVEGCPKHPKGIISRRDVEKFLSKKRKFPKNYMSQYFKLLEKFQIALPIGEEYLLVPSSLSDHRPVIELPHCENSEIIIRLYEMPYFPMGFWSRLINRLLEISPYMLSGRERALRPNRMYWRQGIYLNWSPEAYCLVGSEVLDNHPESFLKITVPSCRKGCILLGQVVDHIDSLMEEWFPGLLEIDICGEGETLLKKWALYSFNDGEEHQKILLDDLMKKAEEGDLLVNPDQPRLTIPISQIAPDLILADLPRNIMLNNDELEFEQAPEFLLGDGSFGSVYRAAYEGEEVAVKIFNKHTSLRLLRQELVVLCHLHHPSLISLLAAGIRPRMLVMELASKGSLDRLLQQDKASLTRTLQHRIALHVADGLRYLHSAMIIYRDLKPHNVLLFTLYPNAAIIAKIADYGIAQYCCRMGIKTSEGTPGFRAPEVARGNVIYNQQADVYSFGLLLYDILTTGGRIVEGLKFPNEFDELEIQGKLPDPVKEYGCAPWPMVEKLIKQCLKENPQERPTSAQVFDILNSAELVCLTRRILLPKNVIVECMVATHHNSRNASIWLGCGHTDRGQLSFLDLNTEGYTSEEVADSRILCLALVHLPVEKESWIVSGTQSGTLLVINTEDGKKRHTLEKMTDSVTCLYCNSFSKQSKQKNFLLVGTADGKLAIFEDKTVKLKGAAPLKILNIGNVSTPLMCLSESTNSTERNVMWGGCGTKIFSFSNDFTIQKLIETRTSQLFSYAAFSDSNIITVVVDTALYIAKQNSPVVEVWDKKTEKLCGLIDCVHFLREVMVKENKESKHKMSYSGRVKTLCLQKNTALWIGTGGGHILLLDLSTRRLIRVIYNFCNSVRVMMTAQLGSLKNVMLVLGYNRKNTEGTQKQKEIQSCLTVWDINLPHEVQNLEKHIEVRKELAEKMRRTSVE", "assay": "in vitro FRET kinase profiling at […], duplicate"}}}
{"smiles": "Cc1cc(C)c2[nH]c(=O)c(-c3[nH]cnc3-c3ccccc3)cc2c1", "note": "[DIPQUO]", "values": [{"measurement": "inhibition at 10 µM", "setting": "[1]", "result": "> 70", "unit": "%"}, {"measurement": "inhibition at 10 µM", "setting": "[2]", "result": "> 70", "unit": "%"}, {"measurement": "inhibition at 10 µM", "setting": "[3]", "result": "> 70", "unit": "%"}, {"measurement": "inhibition at 10 µM", "setting": "[4]", "result": "> 70", "unit": "%"}, {"measurement": "inhibition at 10 µM", "setting": "[5]", "result": 100, "unit": "%"}, {"measurement": "inhibition at 10 µM", "setting": "[6]", "result": "> 70", "unit": "%"}, {"measurement": "inhibition at 10 µM", "setting": "[7]", "result": "> 70", "unit": "%"}, {"measurement": "inhibition at 10 µM", "setting": "[8]", "result": "> 70", "unit": "%"}, {"measurement": "inhibition at 10 µM", "setting": "[9]", "result": "> 70", "unit": "%"}, {"measurement": "inhibition at 10 µM", "setting": "[10]", "result": "> 70", "unit": "%"}]}
